Calls of active or inactive are those of the source. The rule behind the calls is not given here.
How the values were obtained:
HeLa [1] = experiment: Antiproliferative activity against human HeLa cells assessed as reduction in cell viability by MTS assay; format: functional, cell-based
T-24 [2] = experiment: Antiproliferative activity against human T24 cells assessed as reduction in cell viability by MTS assay; format: functional, cell-based
SW480 = experiment: Antiproliferative activity against human SW480 cells assessed as reduction in cell viability by MTS assay; format: functional, cell-based
HepG2 [3] = experiment: Antiproliferative activity against human HepG2 cells assessed as reduction in cell viability at 0.5 uM by MTS assay; format: functional, cell-based; settings: TDE = time-dependent effect
HeLa [4] = experiment: Inhibition of colony formation in human HeLa at 0.1 uM after 2 weeks by trypan blue staining based assay relative to control; format: functional; settings: 336 h
T-24 [5] = experiment: Induction of apoptosis in human T24 cells assessed as increase in cleaved PARP1 level at 0.25 to 2 uM after 12 hrs by Western blot analysis; format: functional, cell-based
HepG2 [6] = experiment: Induction of autophagy in human HepG2 cells assessed as increase in LC3 puncta staining at 0.5 uM after 4 hrs by immunostaining based fluorescence microscopic analysis; format: functional, cell-based
HepG2 [7] = experiment: Induction of endoplasmic reticulum stress in human HepG2 cells assessed as increase in […] expression at 0.5 uM after 4 hrs by anti-ATF6 antibody staining based fluorescence microscopic method; format: functional, cell-based
HepG2 [8] = experiment: Induction of apoptosis in human HepG2 cells assessed as increase in cleaved PARP level by measuring ratio of cleaved PARP to total PARP level at 0.5 uM after 12 hrs by Western blot analysis; format: functional
HepG2 [9] = experiment: Induction of apoptosis in human HepG2 cells assessed as increase in cleaved PARP level by measuring ratio of cleaved PARP to total PARP level at 1 uM after 12 hrs by Western blot analysis; format: functional
HepG2 [10] = experiment: Induction of apoptosis in human HepG2 cells assessed as increase in cleaved PARP level by measuring ratio of cleaved PARP to total PARP level at 2 uM after 12 hrs by Western blot analysis; format: functional
HepG2 [11] = experiment: Induction of autophagy in human HepG2 cells assessed as ratio of LC3-2 to total Erk1/2 protein level at 0.5 uM after 4 hrs in presence of CQ by Western blot analysis (reference value: 2.6); format: functional
HepG2 [12] = experiment: Induction of autophagy in human HepG2 cells assessed as accumulation of LC3-2 protein level at 0.5 uM after 4 hrs in presence of CQ by Western blot analysis analysis relative to CQ; format: functional
HepG2 [13] = experiment: Induction of autophagy in human HepG2 cells assessed as accumulation of LC3-2 protein level at 0.5 uM after 12 hrs in presence of CQ by Western blot analysis relative to CQ; format: functional
[14] = target: Serine/threonine-protein kinase mTOR (Homo sapiens) (UniProt P42345); experiment: Inhibition of mTOR phosphorylation at S2448 residue in human HepG2 cells assessed as ratio of phosphorylated mTOR to total mTOR level at 0.05 uM after 4 hrs by Western blot analysis (reference value: 1); format: cell-based
[15] = target: Serine/threonine-protein kinase mTOR (Homo sapiens) (UniProt P42345); experiment: Inhibition of mTOR phosphorylation at S2448 residue in human HepG2 cells assessed as ratio of phosphorylated mTOR to total mTOR level at 0.1 uM after 4 hrs by Western blot analysis (reference value: 1); format: cell-based
[16] = target: Serine/threonine-protein kinase mTOR (Homo sapiens) (UniProt P42345); experiment: Inhibition of mTOR phosphorylation at S2448 residue in human HepG2 cells assessed as ratio of phosphorylated mTOR to total ERK level at 0.25 uM after 4 hrs by Western blot analysis (reference value: 1); format: cell-based
[17] = target: Serine/threonine-protein kinase mTOR (Homo sapiens) (UniProt P42345); experiment: Inhibition of mTOR phosphorylation at S2448 residue in human HepG2 cells assessed as ratio of phosphorylated mTOR to total ERK level at 0.5 uM after 4 hrs by Western blot analysis (reference value: 1); format: cell-based
[18] = target: RAC-alpha serine/threonine-protein kinase (Homo sapiens) (UniProt P31749); experiment: Inhibition of AKT phosphorylation at S473 residue in human HepG2 cells assessed as ratio of phosphorylated Akt to total Akt level at 0.5 uM after 4 hrs by Western blot analysis (reference value: 1); format: cell-based
RAC-alpha serine/threonine-protein kinase (Homo sapiens), sequence (P31749 whole entry): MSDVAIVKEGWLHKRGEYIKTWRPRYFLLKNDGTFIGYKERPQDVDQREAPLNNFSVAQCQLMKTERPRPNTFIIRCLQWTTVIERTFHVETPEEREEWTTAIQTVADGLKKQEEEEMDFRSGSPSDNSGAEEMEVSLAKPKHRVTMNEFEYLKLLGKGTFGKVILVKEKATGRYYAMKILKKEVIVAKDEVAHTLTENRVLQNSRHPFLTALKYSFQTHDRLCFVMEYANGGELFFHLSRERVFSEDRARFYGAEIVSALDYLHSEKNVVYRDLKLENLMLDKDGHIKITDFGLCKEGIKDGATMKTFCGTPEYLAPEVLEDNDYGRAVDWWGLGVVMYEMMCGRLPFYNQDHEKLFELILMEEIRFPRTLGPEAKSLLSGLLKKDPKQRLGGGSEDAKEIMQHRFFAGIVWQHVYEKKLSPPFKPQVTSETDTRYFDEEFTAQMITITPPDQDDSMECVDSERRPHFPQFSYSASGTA

HepG2 [19] = experiment: Activation of AMPKalpha in human HepG2 cells assessed as ratio of ACCalpha phosphorylation at S79 residue to total ERK level at 0.5 uM incubated for 4 hrs by Western blot analysis (reference value: 1); format: cell-based
HepG2 [20] = experiment: Activation of AMPKalpha in human HepG2 cells assessed as ratio of phosphorylated ACCalpha at S79 residue to total ERK level at 0.5 uM incubated for 4 hrs in presence of CC by Western blot analysis (reference value: 1.1); format: cell-based
HepG2 [21] = experiment: Induction of autophagy in human HepG2 cells assessed as ratio of PFKFB3 expression to total ERK level after 2 hrs by Western blot analysis (reference value: 1); format: functional
HepG2 [22] = experiment: Induction of autophagy in human HepG2 cells assessed as ratio of LC3-2 level to total ERK level at 0.5 uM after 2 hrs by Western blot analysis (reference value: 1); format: functional
HepG2 [23] = experiment: Induction of autophagy in human HepG2 cells assessed as ratio of LC3-2 level to total ERK level at 0.5 uM after 2 hrs in presence of CQ by Western blot analysis (reference value: 1); format: functional
HepG2 [24] = experiment: Induction of autophagy in human HepG2 cells ratio of LC3-2 level to total ERK level at 0.5 uM after 2 hrs in presence of 2-DG and CQ by Western blot analysis relative to 2-DG; format: functional
HepG2 [25] = experiment: Induction of autophagy in human HepG2 cells assessed as ratio of LC3-2 level to total ERK level at 0.5 uM after 2 hrs in presence of PFKFB3 siRNA by Western blot analysis (reference value: 0.8); format: functional
HepG2 [26] = experiment: Induction of autophagy in human HepG2 cells ratio of LC3-2 level to total ERK level at 0.5 uM after 2 hrs in presence of PFKFB3 siRNA and CQ by Western blot analysis relative to PFKFB3 siRNA; format: functional
HepG2 [27] = experiment: Antiproliferative activity against human HepG2 cells assessed as reduction in cell viability at 5 uM by MTS assay; format: functional, cell-based; settings: TDE = time-dependent effect
ACHN = experiment: Antiproliferative activity against human ACHN cells assessed as reduction in cell viability at 5 uM measured up to 72 hrs by MTS assay; format: functional, cell-based
HepG2 [28] = experiment: Induction of apoptosis in human HepG2 cells assessed as increase in cleaved PARP1 level at 5 uM after 12 hrs by Western blot analysis; format: functional, cell-based
HepG2 [29] = experiment: Induction of autophagy in human HepG2 cells assessed as increase in formation of autophagosomes at 0.5 uM after 2 to 48 hrs by TEM analysis; format: functional, cell-based
HepG2 [30] = experiment: Induction of autophagy in human HepG2 cells assessed as increase in formation of autophagosome-like vacuoles at 0.5 uM after 2 to 48 hrs by TEM analysis; format: functional, cell-based
HepG2 [31] = experiment: Induction of autophagy in human HepG2 cells assessed as inhibition of lactate generation at 5 uM up to 4 hrs; format: functional, cell-based
HepG2 [32] = experiment: Induction of autophagy in human HepG2 cells assessed as ratio of LC3-2 level to total Erk1/2 protein level at 0.5 uM after 4 hrs in presence of CC by Western blot analysis (reference value: 1.3); format: functional

| SMILES | Activity (HeLa [1]) | Activity (T-24 [2]) | Activity (SW480) | Activity (HepG2 [6]) | Activity (HepG2 [7]) | Ratio (HepG2 [11]) | fold change (FC) (HepG2 [12]) | fold change (FC) (HepG2 [13]) | Ratio [14] | Ratio [15] | Ratio [16] | Ratio [17] | Ratio [18] | Ratio (HepG2 [19]) | Ratio (HepG2 [20]) | Ratio (HepG2 [21]) | Ratio (HepG2 [22]) | Ratio (HepG2 [23]) | fold change (FC) (HepG2 [24]) | Ratio (HepG2 [25]) | further results |
| --- | --- | --- | --- | --- | --- | --- | --- | --- | --- | --- | --- | --- | --- | --- | --- | --- | --- | --- | --- | --- | --- |
| CC[C@@]12SS[C@]3(C(=O)N1C)[C@@H](O)C1(C45c6ccccc6N[C@@H]4N4C(=O)[C@]6([C@@H](C)O)SS[C@]4(C(=O)N6C)[C@H]5O)c4ccccc4N[C@@H]1N3C2=O (stereo not given in full) | Active | Active | Active | Active | inactive | 2.8 | 2.3 | 3.2 | 1.4 | 1.2 | 1 | 1 | 1.4 | 1.4 | 1 | 0.7 | 1.5 | 3.1 | 3.7 | 0.9 | Activity (HepG2 [3]): Tde; inhibition at 0.1 µM (HeLa [4]): 100%; Activity (T-24 [5]): Active; Ratio (HepG2 [8]): 0.1; Ratio (HepG2 [9]): 1; Ratio (HepG2 [10]): 1.7; fold change (FC) (HepG2 [26]): 4.8 |
| CCC1(SC)C(=O)N2[C@H]3N(C)c4ccccc4C3(C34c5ccccc5N(C)[C@@H]3N3C(=O)C(SC)([C@@H](C)O)N(C)C(=O)C3(SC)[C@H]4O)[C@H](O)C2(SC)C(=O)N1C (stereo not given in full) | Active | Active | Active | Active | inactive | 3.1 | 2.8 | 3.6 | 1.8 | 1.8 | 1 | 1 | 1.4 | 1.7 | 1.1 | 0.6 | 1.6 | 3.2 | 3.7 | 1 | Activity (HepG2 [27]): Tde; Activity (ACHN): Active; Activity (HepG2 [28]): inactive; Activity (HepG2 [29]): Active; Activity (HepG2 [30]): Active; inhibition (HepG2 [31]): Active; Ratio (HepG2 [32]): 0.7; fold change (FC) (HepG2 [26]): 4.6 |

From ChEMBL document CHEMBL4613241, “Disulfide Cleavage in a Dimeric Epipolythiodioxopiperazine Natural Product Diminishes Its Apoptosis-Inducing Effect but Enhances Autophagy in Tumor Cells” (2020)
